From PubChem BioAssay (NCI)
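A five-concentration, 48-hour dose response in 96-well plates underlies each endpoint, interpolated linearly between surrounding concentrations. TGI denotes the concentration required for complete inhibition of growth.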 Where a SMILES comes first, the peptide text is derived from it. The star is where a group is joined. Boc = CC(C)(C)OC(=O)*

Experiments:
Assay in all cases: NCI anticancer screen, dose series, 48 h
[1] = system: SF-295 CNS
[2] = system: COLO 205 colon
[3] = system: NCI-H23 lung
[4] = system: OVCAR-3 ovarian
[5] = system: PC-3 prostate
[6] = system: U251 CNS
[7] = system: OVCAR-8 ovarian
[8] = system: A498 renal
[9] = system: CAKI-1 renal
[10] = system: KM12 colon

Row | Compound | TGI [1] | TGI [2] | TGI [3] | TGI [4] | TGI [5] | TGI [6] | TGI [7] | TGI [8] | TGI [9] | TGI [10]
1 | S=C(c1c[nH]c2ccccc12)N1CCN(c2ccccc2)CC1 | > 100 µM | > 100 µM | > 100 µM | > 100 µM | > 100 µM | 77.8 µM | > 100 µM | > 100 µM | > 100 µM | > 100 µM
2 | CC1(C)C[C@H](O)[C@H](O)[C@]23C(=O)O[C@H](O)[C@H]2C(C=O)=CC[C@@H]13 | > 100 µM | > 100 µM | > 100 µM | > 100 µM | > 100 µM | > 100 µM | > 100 µM | – | > 100 µM | > 100 µM
3 | N#C[C@@]12CCCC(=O)[C@@H]1[C@H]1CCC[C@H]12 | 44.6 µM | 45.7 µM | 35 µM | 23.7 µM | 35.7 µM | 35.5 µM | 47.5 µM | 31.5 µM | 31.4 µM | 27.4 µM
4 | CC[C@@]1(O)C(=O)OCc2c1cc1n(c2=O)Cc2c-1nc1ccccc1c2/C=N\NC(=O)C(N)Cc1cnc[nH]1 (stereo partly specified) | – | > 100 µM | 2.45 µM | > 51.4 µM | > 100 µM | 5.03 µM | 16.1 µM | 4.09 µM | 3.21 µM | > 28.7 µM
5 | CCOCC(NC(=O)C(CC(C)C)NC(=O)OC(C)(C)C)C(N)=O (stereo not drawn) (Boc-Leu-Ser(Et)-NH2; configuration not given here) | > 100 µM | > 100 µM | > 100 µM | > 100 µM | > 100 µM | 2.79 µM | > 100 µM | > 100 µM | > 100 µM | > 100 µM
6 | CC(=O)c1c(-c2ccccc2)c(-c2ccc(OCCN(C)C)cc2)n2ccccc12 | 30.9 µM | 27 µM | 36.7 µM | 32.8 µM | 35.5 µM | 31.3 µM | 31 µM | 39.3 µM | 37.1 µM | 26.5 µM
7 | CC(C)(C)OC(=O)Nc1cc(-c2ccccc2)co1 | > 100 µM | > 100 µM | > 100 µM | > 100 µM | > 100 µM | > 100 µM | > 100 µM | > 100 µM | > 100 µM | > 100 µM
8 | CN[C@@H](C)[C@H](OP(=O)(O)OC1[C@@H](O)[C@H](O)C(O)[C@H](O)[C@@H]1O)c1ccccc1 (stereo partly specified) | > 100 µM | > 100 µM | > 100 µM | > 100 µM | > 100 µM | > 100 µM | > 100 µM | > 100 µM | > 100 µM | > 100 µM
9 | O=C(N/N=C\c1ccc([N+](=O)[O-])cc1)c1ccccc1Nc1ccccc1C(=O)N/N=C/c1ccc([N+](=O)[O-])cc1 | > 100 µM | > 100 µM | > 100 µM | > 100 µM | > 100 µM | > 100 µM | > 100 µM | > 100 µM | > 100 µM | > 100 µM
10 | Cc1ccc(S(=O)(=O)/N=C(\[O-])C2=C(c3ccccc3)NN(C)c3nc4cccc[n+]4nc32)cc1 | – | 53.3 µM | > 100 µM | – | > 100 µM | > 100 µM | > 100 µM | > 100 µM | > 100 µM | > 100 µM
